{"source": "patent US9045482B2", "about": "“Pyrido[4,3-B]indoles and methods of use” (Medivation Technologies, Inc., priority 2009, dated 2015)", "key": {"[1]": {"biological_target": "human recombinant histamine H1 receptor (Homo sapiens, UniProt P35367)", "sequence (P35367 whole entry)": "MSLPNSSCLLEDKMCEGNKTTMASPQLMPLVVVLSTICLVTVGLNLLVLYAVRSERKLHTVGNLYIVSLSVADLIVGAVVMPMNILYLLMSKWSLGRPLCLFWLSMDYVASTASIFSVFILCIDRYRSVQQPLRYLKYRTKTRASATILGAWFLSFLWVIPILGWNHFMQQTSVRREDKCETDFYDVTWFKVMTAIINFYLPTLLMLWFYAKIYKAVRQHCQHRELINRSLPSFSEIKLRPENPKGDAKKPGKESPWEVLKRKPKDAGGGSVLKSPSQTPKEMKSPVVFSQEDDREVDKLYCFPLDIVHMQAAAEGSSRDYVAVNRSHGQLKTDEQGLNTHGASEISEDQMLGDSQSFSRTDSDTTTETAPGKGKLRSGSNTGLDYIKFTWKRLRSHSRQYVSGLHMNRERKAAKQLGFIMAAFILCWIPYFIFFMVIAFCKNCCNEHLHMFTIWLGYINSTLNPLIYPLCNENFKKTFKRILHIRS", "assay": "Histamine H1 radioligand binding ([3H]Pyrilamine)", "details": "read-out: Binding data (Percentage Inhibition) Histamine Binding H1", "method": "To evaluate in radioligand binding assays the activity of compounds of the invention, human recombinant histamine H1 receptor expressed in Chinese hamster ovary (CHO) cells [De Backer, M. et al., Biochem. Biophys. Res. Comm. (1993), 197(3):1601] in a modified Tris-HCl buffer (50 mM Tris-HCl, pH 7.4, 2 mM MgCl2, 100 mM NaCl, 250 mM Sucrose) was used. Compounds of the invention were incubated with 1.2 nM [^3H]Pyrilamine for 180 min at 25° C. Non-specific binding was estimated in the presence of 1 μM pyrilamine. Receptor proteins were filtered and washed, the filters were then counted to determine [^3H]Pyrilamine specifically bound. Compounds were screened at 1 μM or lower, using 1% DMSO as vehicle. Biochemical assay results are presented as the percent inhibition of specific binding in Table 2."}, "[2]": {"biological_target": "human recombinant serotonin (5-Hydroxytryptamine) 5-HT7 receptor (Homo sapiens, UniProt P34969)", "sequence (P34969 whole entry)": "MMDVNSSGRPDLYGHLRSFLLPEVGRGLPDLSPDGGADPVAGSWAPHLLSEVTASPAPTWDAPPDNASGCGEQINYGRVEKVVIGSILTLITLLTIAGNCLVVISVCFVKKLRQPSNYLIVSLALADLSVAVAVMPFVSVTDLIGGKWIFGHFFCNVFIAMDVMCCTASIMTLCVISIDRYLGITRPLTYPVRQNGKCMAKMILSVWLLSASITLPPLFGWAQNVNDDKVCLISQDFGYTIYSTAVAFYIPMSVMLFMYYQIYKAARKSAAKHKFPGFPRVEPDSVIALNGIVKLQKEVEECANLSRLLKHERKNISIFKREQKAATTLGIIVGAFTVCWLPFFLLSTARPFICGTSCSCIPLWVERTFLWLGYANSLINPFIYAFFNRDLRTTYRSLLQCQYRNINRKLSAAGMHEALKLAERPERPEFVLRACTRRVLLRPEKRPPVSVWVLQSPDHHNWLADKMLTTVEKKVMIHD", "assay": "Serotonin 5-HT7 radioligand binding ([3H]LSD)", "details": "0.1 μM ligand concentration", "method": "Compounds of invention were incubated with 5.5 nM [^3H]Lysergic acid diethylamide (LSD) for 2 h at 25° C. […] Receptor proteins were filtered and washed, the filters were then counted to determine [^3H]LSD specifically bound. Compounds were screened at 1 μM or lower, using 1% DMSO as vehicle. Biochemical assay results are presented as the percent inhibition of specific binding in Table 4."}, "[3]": {"biological_target": "T1, human recombinant adrenergic α2C receptor (Homo sapiens, UniProt P18825)", "T1 construct": "expressed in transfected cells; host or cells: insect Sf9 cells", "T1 sequence (P18825 1-462)": "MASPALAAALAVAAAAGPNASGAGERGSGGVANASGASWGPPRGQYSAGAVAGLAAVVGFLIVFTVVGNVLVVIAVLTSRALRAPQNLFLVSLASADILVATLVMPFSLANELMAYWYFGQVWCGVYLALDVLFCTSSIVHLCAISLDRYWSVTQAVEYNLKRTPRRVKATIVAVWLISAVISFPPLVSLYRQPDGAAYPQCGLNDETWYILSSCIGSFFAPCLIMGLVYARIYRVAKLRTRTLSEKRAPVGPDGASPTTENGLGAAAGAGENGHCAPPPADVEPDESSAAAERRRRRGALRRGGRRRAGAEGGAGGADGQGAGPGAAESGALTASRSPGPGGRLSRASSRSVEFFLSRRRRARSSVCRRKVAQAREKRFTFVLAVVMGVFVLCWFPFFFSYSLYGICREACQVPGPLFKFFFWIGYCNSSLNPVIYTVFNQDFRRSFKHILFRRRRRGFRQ", "assay": "Adrenergic α2C radioligand binding ([3H]MK-912)", "details": "0.1 μM ligand conc.", "method": "To evaluate in radioligand binding assays the activity of compounds of the invention, human recombinant adrenergic α2C receptor expressed in insect Sf9 cells [Uhlen, S. et al., J. Pharmacol. Exp. Ther. 1994), 271:1558] in a modified Tris-HCl buffer (50 mM Tris-HCl, pH 7.4, 12.5 mM MgCl2, 2 mM EDTA) was used. Compounds of the invention were incubated with 1 nM [^3H]MK-912 for 60 min at 25° C. Non-specific binding was estimated in the presence of 10 μM WB-4101. Receptor proteins were filtered and washed, the filters were then counted to determine [^3H]MK-912 specifically bound. Compounds were screened at 1 μM or lower, using 1% DMSO as vehicle. Compounds of the invention were tested in this biochemical assay. Biochemical assay results for representative compounds were presented as the percent inhibition of specific binding in Table 3."}, "[4]": {"biological_target": "T2, human recombinant adrenergic α1D receptor (Homo sapiens, UniProt P25100)", "T2 construct": "expressed in transfected cells; host or cells: human embryonic kidney (HEK-293) cells", "T2 sequence (P25100 1-572)": "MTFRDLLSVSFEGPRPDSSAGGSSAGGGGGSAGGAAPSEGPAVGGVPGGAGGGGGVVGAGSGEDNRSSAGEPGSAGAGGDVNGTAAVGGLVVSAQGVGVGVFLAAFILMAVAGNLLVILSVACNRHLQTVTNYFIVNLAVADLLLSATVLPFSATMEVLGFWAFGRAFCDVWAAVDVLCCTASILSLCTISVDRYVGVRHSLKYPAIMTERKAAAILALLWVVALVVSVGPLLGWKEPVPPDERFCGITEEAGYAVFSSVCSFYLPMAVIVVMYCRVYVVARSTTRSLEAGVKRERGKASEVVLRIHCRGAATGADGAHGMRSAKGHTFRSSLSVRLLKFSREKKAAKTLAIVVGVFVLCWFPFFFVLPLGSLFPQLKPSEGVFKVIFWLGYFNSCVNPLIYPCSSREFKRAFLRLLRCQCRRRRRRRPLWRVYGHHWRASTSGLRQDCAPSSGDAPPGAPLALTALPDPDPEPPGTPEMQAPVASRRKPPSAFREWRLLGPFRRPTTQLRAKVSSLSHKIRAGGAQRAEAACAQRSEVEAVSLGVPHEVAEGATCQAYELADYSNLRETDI", "assay": "Adrenergic α1D radioligand binding ([3H]Prozosin)", "method": "Compounds of invention were incubated with 0.6 nM [^3H]Prozosin for 60 min at 25° C. Non-specific binding was estimated in the presence of 10 μM phentolamine. Receptor proteins were filtered and washed, the filters were then counted to determine [^3H]Prozosin specifically bound. Compounds were screened at 1 μM or lower, using 1% DMSO as vehicle. Compounds of the invention were tested in this biochemical assay. Biochemical assay results for representative compounds were presented as the percent inhibition of specific binding in Table 3."}}, "data": [{"smiles": "Cc1cnc2c(c1)c1c(n2CCc2ccc(C)nc2)CCN2CCCC12", "note": "(stereo not drawn) [Compound 33, 10-methyl-7-(2-(6-methylpyridin-3-yl)ethyl)-2,3,5,6,7,1c-hexahydro-1H-pyrido[3′,2′:4,5]pyrrolo[2,3-g]indolizine]", "values": [{"measurement": "inhibition at 0.1 µM", "setting": "[1]", "value": 73, "unit": "%"}, {"measurement": "Percent Inhibition of ligand binding Serotonin 5-HT7", "setting": "[2]", "value": 44, "unit": "%"}, {"measurement": "Percent Inhibition of ligand binding Adrenergic α2C", "setting": "[3]", "value": 4, "unit": "%"}]}, {"smiles": "O=C(Cn1c2c(c3cccnc31)CN1CCCC1C2)N1CCCCC1", "note": "(stereo not drawn) [Compound 37, 1-(piperidin-1-yl)-2-(8,9,9a,10-tetrahydro-5H-pyrido[3′,2′:4,5]pyrrolo[3,2-f]indolizin-11(7H)-yl)ethanone]", "values": [{"measurement": "Percent Inhibition of ligand binding Adrenergic α1D", "setting": "[4]; 0.1 μM ligand conc.", "value": 6, "unit": "%"}, {"measurement": "inhibition at 0.1 µM", "setting": "[1]", "value": 6, "unit": "%"}, {"measurement": "Percent Inhibition of ligand binding Serotonin 5-HT7", "setting": "[2]", "value": 3, "unit": "%"}, {"measurement": "Percent Inhibition of ligand binding Adrenergic α2C", "setting": "[3]", "value": 4, "unit": "%"}]}, {"smiles": "Fc1ccc(CCn2c3c(c4cc(Cl)ccc42)C2CCCN2CC3)cc1", "note": "(stereo not drawn) [Compound 1, 7-(4-fluorophenethyl)-10-chloro-2,3,5,6,7,11c-hexahydro-1H-indolizino[7,8-b]indole]", "values": [{"measurement": "Percent Inhibition of ligand binding Adrenergic α1D", "setting": "[4]; 1 μM ligand conc.", "value": 15, "unit": "%"}, {"measurement": "inhibition at 1 µM", "setting": "[1]", "value": -2, "unit": "%"}]}, {"smiles": "Fc1ccc(CCn2c3c(c4cc(Cl)ccc42)CN2CCCC2C3)cc1", "note": "(stereo not drawn) [Compound 2, 10-(4-fluorophenethyl)-7-chloro-2,3,5,10,11,11a-hexahydro-1H-indolizino[7,6-b]indole]", "values": [{"measurement": "Percent Inhibition of ligand binding Adrenergic α1D", "setting": "[4]; 1 μM ligand conc.", "value": 23, "unit": "%"}, {"measurement": "inhibition at 1 µM", "setting": "[1]", "value": 9, "unit": "%"}]}, {"smiles": "Cc1ccc(CCn2c3c(c4cccnc42)CN2CCCC2C3)cn1", "note": "(stereo not drawn) [Compound 35, 11-(2-(6-methylpyridin-3-yl)ethyl)-7,8,9,9a,10,11-hexahydro-5H-pyrido[3′,2′:4,5]pyrrolo[3,2-f]indolizine]", "values": [{"measurement": "inhibition at 0.1 µM", "setting": "[1]", "value": 50, "unit": "%"}, {"measurement": "Percent Inhibition of ligand binding Serotonin 5-HT7", "setting": "[2]", "value": 6, "unit": "%"}, {"measurement": "Percent Inhibition of ligand binding Adrenergic α2C", "setting": "[3]", "value": 2, "unit": "%"}]}, {"smiles": "Cc1cnc2c(c1)c1c(n2CCc2ccc(C)nc2)CC2CCCN2C1", "note": "(stereo not drawn) [Compound 36, 3-methyl-11-(2-(6-methylpyridin-3-yl)ethyl)-7,8,9,9a,10,11-hexahydro-5H-pyrido[3′,2′:4,5]pyrrolo[3,2-f]indolizine]", "values": [{"measurement": "inhibition at 0.1 µM", "setting": "[1]", "value": 96, "unit": "%"}, {"measurement": "Percent Inhibition of ligand binding Serotonin 5-HT7", "setting": "[2]", "value": 23, "unit": "%"}, {"measurement": "Percent Inhibition of ligand binding Adrenergic α2C", "setting": "[3]", "value": 3, "unit": "%"}]}, {"smiles": "Cc1ccc(CCn2c3c(c4cccnc42)C2CCCN2CC3)cn1", "note": "(stereo not drawn) [Compound 34, 7-(2-(6-methylpyridin-3-yl)ethyl)-2,3,5,6,7,1c-hexahydro-1H-pyrido[3′,2′:4,5]pyrrolo[2,3-g]indolizine]", "values": [{"measurement": "inhibition at 0.1 µM", "setting": "[1]", "value": 22, "unit": "%"}, {"measurement": "Percent Inhibition of ligand binding Serotonin 5-HT7", "setting": "[2]", "value": 18, "unit": "%"}, {"measurement": "Percent Inhibition of ligand binding Adrenergic α2C", "setting": "[3]", "value": 1, "unit": "%"}]}, {"smiles": "C/C(=C\\n1c2c(c3cc(C)ccc31)C1CCCN1CC2)c1ccc(C)nc1", "note": "(stereo not drawn) [Compound 32, (E)-10-methyl-7-(2-(6-methylpyridin-3-yl)prop-1-enyl)-2,3,5,6,7,11c-hexahydro-1H-indolizino[7,8-b]indole]", "values": [{"measurement": "inhibition at 0.1 µM", "setting": "[1]", "value": 1, "unit": "%"}, {"measurement": "Percent Inhibition of ligand binding Serotonin 5-HT7", "setting": "[2]", "value": 61, "unit": "%"}, {"measurement": "Percent Inhibition of ligand binding Adrenergic α2C", "setting": "[3]", "value": 45, "unit": "%"}]}, {"smiles": "O=C(Cn1c2c(c3cccnc31)C1CCCN1CC2)N1CCCCC1", "note": "(stereo not drawn) [Compound 38, 1-(piperidin-1-yl)-2-(2,3,5,6-tetrahydro-1H-pyrido[3′,2′:4,5]pyrrolo[2,3-g]indolizin-7(11cH)-yl)ethanone]", "values": [{"measurement": "Percent Inhibition of ligand binding Adrenergic α1D", "setting": "[4]; 0.1 μM ligand conc.", "value": 4, "unit": "%"}, {"measurement": "inhibition at 0.1 µM", "setting": "[1]", "value": 5, "unit": "%"}, {"measurement": "Percent Inhibition of ligand binding Serotonin 5-HT7", "setting": "[2]", "value": 23, "unit": "%"}, {"measurement": "Percent Inhibition of ligand binding Adrenergic α2C", "setting": "[3]", "value": "−6", "unit": "%"}]}]}
